The test system of one data set is PG formation. The following applies: cited from earlier work.
The conditions of data set [1]: cited from earlier work.
A further data set deals with NZB/W mouse. The experiment in a line: NZB/W mouse, animal model for Sjogren's syndrome. Type of data set: in vivo.
The test system of the next data set is Sjogren's syndrome. The settings on record: vitamin C 7.5 g/day for a year; person.
The subject of data set [2] is conversion of DGLA to 1 series PGs (human platelets). Description: tissue or blood. In kind it is cell-based. The settings on record: for effect on formation of 1 series PGs from DGLA: human platelets; for activity at 0.018 µg/mL / activity at 18 µg/mL: Homo sapiens, Platelet; for behaviour of treated normal platelets (PGE1 from DGLA): normal platelets compared with schizophrenic platelets.
Experimental: (§1) The method is given in detail later herein but briefly human platelets are incubated with radioactive DGLA or arachidonic acid. The PGs produced during incubation are extracted by conventional means and separated by thin layer chromatography, and the amount of radioactivity appearing in each PG or related substance is counted. PGE 1, PGF 1α and thromboxane B1 from DGLA, and PGE 2, PGF 2α and thromboxane B2 from AA are estimated.
(§2) One day expired (2 days old) human platelets were obtained and used within 48 hours of expiration. One unit was centrifuged at 1000 g for 15 minutes and the supernatent drawn off. The platelet pellet was resuspended in Tris-NaCl-EDTA buffer, made up of 0.15 M NaCl, 0.15 M Tris HCl at pH 7.4 and 0.077 M NaEDTA (90:8:2 v/v/v). The platelets were recentrifuged, the supernatant removed and the pellet resuspended in Krebs-Henseleit buffer (without calcium) at pH 7.4. The washed platelets suspension contained about 1-2% red blood cells. All glassware used in the preparation of the platelets was siliconized.
Four equal sized 1 ml aliquots of the platelet suspension, containing 10^9 platelets/ml were incubated with e.g. 0.5 μCi ^14 C-DGLA for five minutes. At the beginning of the incubation the material under test was added to the suspensions. The reaction was stopped after five minutes by addition of 1/10 volume of 10% formic acid. The suspension was then extracted three times with ethyl acetate and the fractions pooled and dried under vacuum. The extract was then taken up with 5 ml chloroform/methanol (2/1, v/v). Recovery of radioactive material in the extract was checked by taking 50 μl of the chloroform/methanol and counting by liquid scintillation.
The chloroform/methanol extract was then reduced in volume to 1 ml under dry prepurified nitrogen. Thin layer chromatography was carried out on 500 μg precoated, prescored silica gel G Uniplates (Analtech). Plates were activated by heating to 100° C. for 1 hour immediately prior to use. The solvent system was chloroform:methanol:acetic acid:water (90:8:1:0:8). Reference compounds (PGsE1 and F1α and thromboxane B1) were run at the same time and visualized by phosphomolybdic acid spray followed by brief heating. The bands on the plates corresponding to the reference PGE1, PFG1α and TXB1 were scraped off and eluted with 20 ml acetone. Each elution was then evaporated to dryness and counted by liquid scintillation (Beckman 100 LS counter).
Three experiments were performed with DGLA and three with AA.

In the next data set the test system is opiate receptor. The following applies: cited from earlier work.
For data set [3], the system named is conversion of AA to 2 series PGs (human platelets). Type of data set: cell-based.
Experimental: as §1, §2
Four equal sized 1 ml aliquots of the platelet suspension, containing 10^9 platelets/ml were incubated with e.g. 0.5 μCi ^14 C-DGLA for five minutes. […]
The chloroform/methanol extract was then reduced in volume to 1 ml under dry prepurified nitrogen. […] Each elution was then evaporated to dryness and counted by liquid scintillation (Beckman 100 LS counter). […]
The mark [4] stands for this setting: read-out: PGE1 formation (precursor DGLA), percentage of control counts.
The mark [5] stands for this setting: read-out: TXB1 formation (precursor DGLA), percentage of control counts.

“Also recorded” adds a separate entry of the source. Like-named read-outs stand apart in the source and are kept apart here.

Regarding `CCO` [Ethyl alcohol, ethyl alcohol], the “effect on formation of thromboxane B2” value with PG formation (extremely high levels of ethanol, conversion of AA) is on record as “can block the formation of thromboxane B2”. Moreover, the “concentration of alcohol in human plasma at which signs of mild intoxication first appear” value in data set [1] (human plasma) is reported as 20-30 mg %. In data set [1] (in vivo), the “concentration which produces "blind drunkenness"” value was 300 mg %.
`CCCCC[C@H](O)/C=C/[C@H]1[C@H](O)CC(=O)[C@@H]1CCCCCCC(=O)O` [PGE1]: in the data set with NZB/W mouse, the “effect on immunological abnormalities of the strain” value is “can correct many of the immunological abnormalities of the strain”.
In the case of `O=C1O[C@H]([C@@H](O)CO)C(O)=C1O` [Vitamin C, ascorbic acid], the “effect on well-being, dry eyes and mouth” value in the data set with Sjogren's syndrome was “subjective sense of well-being and some slight improvement in the dry eyes and mouth”. In the data set with PG formation (high concentrations of vitamin C, reports in the literature), the “effect on PG formation” value was “both enhancing and reducing PG formation”.
In the case of `CN1CC[C@@]23CCCC[C@@H]2[C@@H]1Cc1ccc(O)cc13` [d-levorphanol], the “effect on conversion of DGLA to PGE1” value in data set [2] (d-isomer of levorphanol) is listed as “no such effect”. In addition, in data set [2], the “effect on formation of 1 series PGs from DGLA” value (from here on “effect on formation … from DGLA”) is “not shown by d-levorphanol”. Besides, the “binding to and activation of the opiate receptor” value in the data set with opiate receptor was “does not”; with opiate receptor (listed as d-isomer of levorphanol), “devoid of opiate activity”.
Regarding `CN1CC[C@]23CCCC[C@H]2[C@H]1Cc1ccc(O)cc13` [l-levorphanol], in data set [2] (setting [4]), the activity at 0.018 µg/mL amounted to 23% and the activity at 18 µg/mL amounted to 72%. Besides, in data set [2] (setting [5]), the activity at 0.018 µg/mL was found to be 20% and the activity at 18 µg/mL turned out to be 76%. For the same compound, in data set [2], the “effect on formation … from DGLA” value is listed as “reduced formation of 1-series PGs; also recorded: able to block the formation of 1 series PGs from DGLA” and the “behaviour of treated normal platelets (PGE1 from DGLA)” value is “behave like schizophrenic platelets”. In data set [2] (l-levorphanol 100 μg/ml), the “effect on conversion of DGLA to PGE1” value is recorded as “inhibiting conversion of DGLA to PGE1”. Moreover, the “imitation of schizophrenic defect of conversion of DGLA to PGE1 in normal platelets” value in data set [2] (normal platelets incubated with l-levorphanol) is “can be limited in normal platelets by incubation with l-levorphanol”. Also, the “effect on formation of 2 series PGs from AA” value in data set [3] is “no effect on production of 2-series PGs from AA; also recorded: without blocking the formation of 2 series PGs from AA”. Further, the “binding to and activation of the opiate receptor” value in the data set with opiate receptor was “binds to and activates the opiate receptor”.
Regarding `CCCCC/C=C\C/C=C\C/C=C\CCCCC(=O)O` [γ-linolenic acid], the “effect on immunological abnormalities of the strain” value in the data set with NZB/W mouse is on record as “can correct many of the immunological abnormalities of the strain”.
Turning to “β-endorphin: natural opioid (YGGFMTSEKSQTPLVTLFKNAIIKNAYKKGE; Beta-endorphin; UniProt P01189 237-267, looked up)”, in data set [2], the “effect on formation … from DGLA” value is “effect similar to levorphanol” and the “behaviour of treated normal platelets (PGE1 from DGLA)” value was “behave like schizophrenic platelets”.

Source of the values: patent publication USRE31836E, “Pharmaceutical and dietary composition” (priority 1984, dated 1985).
